Assay results published in patent US9427455B2, “Use of the pat nanopeptide in the treatment of autoimmune diseases” (CLL PHARMA, priority 2008, dated 2016).

Legend:
Format in all cases: in vivo
[1] = test system: arthritic rats of OFA (SD) strain; experiment: Arthritis induced by Freund's adjuvant (Mycobacterium butyricum) in the rat; settings: for volume of the leg: 5 times per week during 3 weeks, from Day 14 until Day 21, FIG. 4; for hypersensitivity measured by the plantar test: Day 16, equivalent to non-arthritic reference group, FIG. 6; for erythrocyte sedimentation rate (ESR): FIG. 7; for macroscopic clinical score: FIG. 5
Experimental: We used the model of arthritis induced by Freund' adjuvant as described in the article of Milan et al., J Neurosci 1986; 6: 899-906. The rats are administered with Mycobacterium butyricum develop usually a severe polyarthritis which resembles to that in human. Rats of OFA (SD) strain (Oncins France Strain A) weighing approximately 200 g received an […] of a 10 mg/ml Mycobacterium butyricum solution at the articulation of the right ankle. For all the measured parameters, the rats were divided into 5 groups (8 rats/group) in the following way: • reference group: the rats received a paraffin injection instead of the solution of Mycobacterium butyricum (no induced arthritis) then receive an intraperitoneal injection of saline solution; • arthritic group+injection of saline solution; • arthritic group+intraperitoneal injection of 3 mg/kg indomethacin; the indomethacin being a NSAID classically used as reference in this kind of test; • arthritic group+intraperitoneal injection of 0.4 […]; […] The products are administered 5 times per week during 3 weeks. At the beginning of the experimentation (day 0), one determines the initial values for the different parameters (volume of the leg, macroscopic clinical score, sedimentation test and hypersensitivity). During the experiment, several parameters are measured: • the volume of the leg (“paw latency duration”); • the globular sedimentation test (“Erythrocyte Sedimentation rate”); • the macroscopic score: • “0” means that no sign of arthritis was detected; • “1” means that a swelling or an inflammation was detected on a leg; • “2” means that a swelling or an inflammation was detected on two legs; • “3” means that a swelling or an inflammation was detected on at lest 3 legs; • “4” means that a swelling or an inflammation was detected on the 4 legs. • hypersensitivity according to the plantar test: carried out according to Yukinori Nagakura and al, Allodynia and hyperalgesia in adjuvant-induced arthritic rats: time course of progression and efficacy of analgesics, JPET 306: 490-497, 2003, or in Andersen M L and al “Evaluation of acute and chronic treatments with Harpagophytum procumbens one Freund's adjuvant-induced arthritis in rats”. J. Ethnopharmacol. 2004 April; 91 (2-3): 325-30; • the erythrocyte sedimentation rate (ESR): the increase in this one generally accompanies the clinical symptoms met in induced arthritis. The ESR is measured in the arthritic rats (at Day 21) 1 hour and 2 hours after the injection of PAT or indomethacin, according to the protocol of Mahajan S G, et al., Protective Effect of Ethanolic Extract of Seeds of Moringa will oleifera Lam. Against Inflammation Associated with Development of Arthritis in Rats. J. Immunotoxicol. 2007 January; 4 (1): 39-47.

[2] = test system: C57BL/6J mice with colitis induced by TNBS; experiment: TNBS-induced experimental colitis in mice (animal weight, colon inflammation); settings: for effect on animal weight (weight loss induced by TNBS): FIG. 1
Experimental: The PAT nonapeptide was studied in animal model of experimental colitis. In mice, one of the clearly established IBD colitis models is the one in which the induction is performed by the use of trinitrobenzene sulphonic acid (TNBS). TNBS is a hapten which, when it is administered by intrarectal route, induced a severe colonic transmural inflammation; the induced effects present many similarities with those induced by Crohn's disease (Elson C O et al Experimental models of inflammatory bowel disease. Gastroenterology 2003; 10: 1344-67; Strober W et al., The immunology of mucosal models of inflammation. Annu Rev Immunol 2002; 20: 495-49).
(§1) Colitis is induced in C57BL/6J mice of 7-8 weeks old after TNBS administration per rectal route according to the protocol described by Sugimoto K. et al (Gastroenterology 2002: 123; 1912-1922). The administration is performed directly in the lumen of the colon (over a 3-4 cm length) by using a 1 ml-syringe and a polyethylene cannula (Intradermic PE-20, Becton Dickinson) of a 100 μl solution containing 2.5 mg of TNBS dissolved beforehand in 50 μl of ethanol. After the administration, the mice are maintained 30 seconds in vertical position.
The design of the study is the following: • one control batch of 5 mice treated by ethanol/PBS mixture (vol/vol): • one test batch of 10 mice to which TNBS is administered (2.5 mg in 50% ethanol); • one test batch of 10 mice to which TNBS and nonapeptide are administered with the amount of 1 μg/mouse; • one test batch of 10 mice to which TNBS and nonapeptide are administered with the amount of 5, μg/mouse; • one batch of 10 mice to which TNBS and nonapeptide are administered with the amount of 25 μg/mouse.
The PAT nonapeptide is administered by intraperitoneal route 30 minutes before the TNBS induction of colitis. Several mice (5 of each test batch; 2 of control batch) are sacrificed at day 1 after TNBS induction. The remaining mice (5 of each test batch; 3 of control batch) are sacrificed at day 3 after TNBS induction.
The animals are weighed every day until the sacrifice.
As soon as the animals are sacrificed, the colon is sampled and a macroscopic analysis is carried out.

IL-1β = experiment: Expression of IL-1β in colon by quantitative RT-PCR, TNBS colitis mice; settings: 25 μg of PAT; TNBS alone increases almost 50 fold; FIG. 3
Experimental: as §1, with “position. […]” for “position.”
(§2) The latter is carried out by denaturation with guanidine thiocyanate; cDNA synthesis is made starting from 1 ng of RNA using a kit (Euromedex). A quantitative PCR is carried out; the reaction is performed in a 25 μl final volume by using SYBR kit (Eurogentec). Stimulation rate is determined for each cytokine compared to reference cDNA which is that corresponding to […] ribosomal phosphoprotein.

IL-6 = experiment: Expression of IL-6 in colon by quantitative RT-PCR, TNBS colitis mice; settings: 25 μg of PAT per mouse; TNBS alone increases around 30 fold; FIG. 3
Experimental: as §1, with “position. […]” for “position.”
as §2

TNF-α = experiment: Expression of TNF-α in colon by quantitative RT-PCR, TNBS colitis mice; settings: PAT 25 μg/mouse; TNBS alone increases around 4 fold; FIG. 3
Experimental: as §1, with “position. […]” for “position.”
as §2

IL-10 = experiment: Expression of IL-10 in colon by quantitative RT-PCR, TNBS colitis mice; settings: PAT 25 μg/mouse before TNBS; not increased with TNBS alone; FIG. 3
Experimental: as §1, with “position. […]” for “position.”
as §2

For COc1ccc2c(c1)c(CC(=O)O)c(C)n2C(=O)c1ccc(Cl)cc1 [indomethacin, reference compound], the “volume of the leg” value ([1]; indomethacin 3 mg/kg i.p.) was “notable reduction of inflammation and of the volume of the leg”, the “hypersensitivity measured by the plantar test” value (“hypersensitivity measured” for short) ([1]; indomethacin 3 mg/kg i.p.) was “hypersensitivity is very reduced” and the “erythrocyte sedimentation rate (ESR)” value ([1]; indomethacin 3 mg/kg i.p., Day 21) was “reduced in a very important way”. The macroscopic clinical score ([1]; indomethacin 3 mg/kg i.p., compared to arthritic rats given saline solution) was “significant reduction in the macroscopic score”.

“H EAKSQGGSD-NH2 (H-EAKSQGGSD-NH2) [PAT nonapeptide]” was tested, and the “effect on animal weight (weight loss induced by TNBS)” value ([2]; PAT 1 μg/mouse i.p. 30 minutes before TNBS) was “do not show a significant effect”, the “effect on animal weight (weight loss induced by TNBS)” value ([2]; PAT 5 μg/mouse i.p. 30 minutes before TNBS) was “do not show a significant effect” and the “effect on animal weight (weight loss induced by TNBS)” value ([2]; PAT 25 μg/mouse i.p. 30 minutes before TNBS) was “allows to limit this weight loss”. For the same molecule, the “colon length, on average” value ([2]; TNBS-PAT treated mice, control mice 7 cm, TNBS-treated mice 5 cm) was 6.5 cm, the “colon inflammation caused by TNBS rectal injection (macroscopic analysis)” value ([2]; i.p. 30 minutes before TNBS, dose dependant, maximal effect at 25 μg/mouse, FIG. 2) was “reduce to a significant extent inflammation” and the IL-1β cytokine expression (IL-1β) was “decreases to a significant extent”. For the same molecule, the IL-6 expression (IL-6) was “decreases to a significant extent”, the TNF-α expression (TNF-α) was “the increase is notably reduced” and the “increase of IL-10 anti-inflammatory cytokine level” value (IL-10) was “more than 3 fold”. The progression of arthritis ([1]; PAT 0.4 μg/kg (i.p), leg, peripheral hypersensitivity and ESR) was “reduce very significantly the progression of arthritis”, the “efficacy compared with indomethacin 3 mg/kg” value ([1]; PAT 0.4 μg/kg (i.p.), a dose 7500 fold lower than indomethacin) was “at least a similar efficacy” and the “volume of the leg” value ([1]; PAT 0.4 μg/kg i.p.) was “notable reduction of inflammation and of the volume of the leg”. For the same molecule, the “hypersensitivity measured” value ([1]; PAT 0.4 μg/kg i.p.) was “hypersensitivity is very reduced”, the “erythrocyte sedimentation rate (ESR)” value ([1]; PAT 0.4 μg/kg i.p., Day 21, 1 hour after the injection, compared to indomethacin group, very similar to reference rats) was “more reduced ESR” and the macroscopic clinical score ([1]; PAT 0.4 μg/kg i.p., compared to arthritic rats given saline solution) was “significant reduction in the macroscopic score”. For the same molecule, the “volume of the leg” value ([1]; PAT 4 μg/kg i.p.) was “notable reduction of inflammation and of the volume of the leg”, the “hypersensitivity measured” value ([1]; PAT 4 μg/kg i.p.) was “hypersensitivity is very reduced” and the “erythrocyte sedimentation rate (ESR)” value ([1]; PAT 4 μg/kg i.p., Day 21) was “did not have a significant effect on the reduction of ESR”. For the same molecule, the macroscopic clinical score ([1]; PAT 4 μg/kg i.p., compared with 0.4 μg/kg) was “shows less effects”.
